# Laboratory results: patent US7612081B2 (priority 2003, dated 2009)
# Read-outs that look alike come from different tables or passages of the source.
# Key:
# [1] = test system: NCl—H460 non-microcytoma lung cancer cells; assay: Cytotoxic activity on NCl—H460 cells (sulforodamine B); conditions: for IC50: read-out: IC50 (product concentration that inhibits cell survival by 50%), 2 hours exposure, 72 hours recovery, mean ± SD
# Method: NCl—H460 non-microcytoma lung cancer cells were kept in RPMI 1640 culture medium containing 10% FCS and 1% glutamine. The cytotoxicity test to analyse the activity of the molecules was performed as follows. The cells were seeded in a volume of 250 μl in 96-well plates and incubated for 2 hours at 37° C. with scalar concentrations of the products in a humidified atmosphere containing 5% CO2. At the end of the incubation, the molecules were removed by overturning the plates and adding sterile buffered saline solution (PBS) three times. The RPMI 1640 culture medium containing 10% FCS (200 μl) was added to the wells and the plates were incubated for another 72 hours. At the end of the incubation, the plates were overturned again and dried on paper, before adding 200 μl of PBS and 50 μl of 80% TCA. The plates were incubated again in ice for at least 1 hour. The TCA was removed by overturning the plates and the plates were first dried on paper and then washed three times by immersion in distilled water and overturning. The plates were dried first on paper and then in a thermostatically regulated incubator at 60° C. for 10 min. 200 μl of 0.4% sulforodamine B in 1% acetic acid were added to all wells. The plates were incubated at room temperature for another 30 min. The sulforodamine B was removed by overturning, the plates were washed by immersion in 1% acetic acid three times and then dried first on blotting paper and then in the thermostat at 60° C. for 10 min. Lastly, 200 μl of Tris base 10 mM were added to all wells and the plates were subjected to stirring for at least 20 min. The optical density was measured with a Multiskan spectrophotometer at 540 nm.
# [2] = test system: Saccharomyces cerevisiae yeast strain EKY3 (top1Δ), YCpGAL1-hTOP1G363C; assay: Yeast in-vivo spot test, G363C mutant; assay type: cell-based; conditions: 45 μM
# Excerpt: (§1) To identify camptothecin derivatives that overcome the resistance to camptothecin induced by point mutations on topisomerase I DNA in the Saccharomyces cerevisiae yeast model, an in-vivo and an in-vitro system were used in parallel.
# (§2) A number of mutations are present close to the active site of the enzyme (tyrosine 723) and others around position 363 which corresponds to a very well conserved region.
# (§3) Before effecting the transformation of the yeasts, the yeasts were unfrozen and plated with a sterile bent glass rod in 90-mm plates containing sterile solid YPDa medium (10 g of yeast extract, 20 g of peptone, 20 g of dextrose, 0.7 g of adenine, 20 g of glucose, 20 g of agar per liter). Colonies formed after 48-72 hours in an incubator at 30° C.
# (§4) One day before the transformation, a single yeast colony sample was taken with a sterile Gilson tip and inoculated in 5 ml of sterile liquid YPDA medium (the above-mentioned medium without agar). […]
# (§5) Before treating the yeasts with the camptothecin derivatives (in-vivo spot test), the transformed colonies were inoculated with a Gilson tip in 5 ml sterile liquid CM medium. […] On the day after, the optical density of the colonies was measured at 600 nm and a dilution of the colonies was performed in order to obtain an optical density of 0.3. […] The colonies were incubated at 30° C. for 48-72 hours and analysed macroscopically.
# [3] = test system: Saccharomyces cerevisiae yeast strain EKY3 (top1Δ), YCpGAL-1hTOP1A653P; assay: Yeast in-vivo spot test, A653P mutant; assay type: cell-based; conditions: 45 μM
# Excerpt: as §1, §2, §3, §4, §5
# [4] = test system: Saccharomyces cerevisiae yeast strain EKY3 (top1Δ), Topoisomerase I wild-type (TOP1); assay: Yeast in-vivo spot test, wild-type TOP1; assay type: cell-based; conditions: 45 μM
# Method: One day before the transformation, a single yeast colony sample was taken with a sterile Gilson tip and inoculated in 5 ml of sterile liquid YPDA medium (the above-mentioned medium without agar). The colony was grown overnight under stirring at 30° C. […]
# [5] = test system: MKN-28 human gastric carcinoma; conditions: for LCK (1000 mm^3) (log cell kill): q4dx4; for TVI % (tumor volume inhibition): q4dx4, 20 days after last treatment
# Method: Tumor fragments were inoculated on both flanks at day 0. Treatment started when tumors were just palpable. The molecule was given by oral route and intravenously according to the schedule q4d×4. During the treatment, animals were inspected every day for mortality. Physical appearance, behavior and general and local clinical signs of the mice will be observed daily. Any deviation from normality was recorded. All animals were weighed during the whole treatment period, in order to calculate the percent body weight loss due to the treatment.
# Tumor volume inhibition % in treated over control tumors was evaluated 20 days after last treatment. To determine the antitumor activity of the drug, tumor diameters was measured biweekly with a Vernier caliper. The formula TV (mm^3)=[length (mm)×width (mm)^2]/2 was used, where the width and the length are the shortest and the longest diameters of each tumor, respectively.
# When tumors reached a weight of about 2 g, the mice were sacrificed by cervical dislocation. LCK (log cell kill) as index of efficacy was calculated to evaluate the persistence of the effect of the molecule at the end of the treatment.
# [6] = test system: Saccharomyces cerevisiae yeast strain EKY3 (top1Δ), YCpGAL1-hTOP1K720E; assay: Yeast in-vivo spot test, K720E mutant; assay type: cell-based; conditions: 45 μM
# Excerpt: as §1, §2, §3, §4, §5
molecule,measurement,setting,value
CC[C@@]1(O)C(=O)OCc2c1cc1n(c2=O)Cc2c-1nc1ccccc1c2C=NCC1CCN(C(=O)OC(C)(C)C)CC1 [ST2665],IC50,[1],> 200 nM
CCC1(O)C(=O)OCc2c1cc1n(c2=O)Cc2c-1nc1ccccc1c2C=NOCCCN(CCCCNC(=O)OC(C)(C)C)C(=O)OC(C)(C)C (centres unmarked) [ST2872],IC50,[1],> 200 nM
"CCC1(O)C(=O)OCc2c1cc1n(c2=O)Cc2c-1nc1ccccc1c2C=NOCCCNC(=O)OC(C)(C)C (stereo not drawn) [ST2664, 7-[3-(N-tert-butoxycarbonyl)-amino-1-propoxyiminomethyl]20S-camptothecin]",IC50,[1],> 200 nM
"7-[(N′, N″-tert-butoxycarbonyl)-spermidine-imino-methyl]-20S-camptothecin [ST2598]",Cytotoxicity on the lung cancer line (in words),[1],very potent cytotoxicity
same,IC50,[1],15 ± 2 nM
same,Phenotype of mutated enzyme G363C towards the derivative,[2],resistant
same,Phenotype of mutated enzyme A653P towards the derivative,[3],resistant
same,Phenotype of Topoisomerase I wild-type towards the derivative,[4],sensitivity
7-[N-(N′-tert-butoxcarbonyl)-putrescinimino-methyl]-20S-camptothecin [ST2615],IC50,[1],> 200 nM
"7-[(N′,N″-Di-benzyloxycarbonyl)-spermidineiminomethyl]-20S-camptothecin [ST2729]",IC50,[1],34 ± 7 nM
"7-[(N′,N″,N′″-tert-butoxycarbonyl)-spermine-imino-methyl]-20S-camptothecin [ST2544]",IC50,[1],12.9 ± 1.8 nM
same,LCK (1000 mm^3) (log cell kill),"[5]; iv, 1 mg/kg",0.2
same,TVI % (tumor volume inhibition),"[5]; iv, 1 mg/kg",34%
same,LCK (1000 mm^3) (log cell kill),"[5]; iv, 2 mg/kg",0.2
same,TVI % (tumor volume inhibition),"[5]; iv, 2 mg/kg",36%
same,LCK (1000 mm^3) (log cell kill),"[5]; iv, 4 mg/kg",0.8
same,TVI % (tumor volume inhibition),"[5]; iv, 4 mg/kg",66%
same,LCK (1000 mm^3) (log cell kill),"[5]; p.o., 1 mg/kg",0.1
same,TVI % (tumor volume inhibition),"[5]; p.o., 1 mg/kg",28%
same,LCK (1000 mm^3) (log cell kill),"[5]; p.o., 2 mg/kg",0.5
same,TVI % (tumor volume inhibition),"[5]; p.o., 2 mg/kg, 2 mg/kg",62%
same,TVI % (tumor volume inhibition),"[5]; p.o., 4 mg/kg, 4 mg/kg",72%
same,Phenotype of mutated enzyme G363C towards the derivative,[2],resistant
same,Phenotype of K720E mutant towards the derivative,[6],sensitivity
same,Phenotype of mutated enzyme A653P towards the derivative,[3],resistant
same,Phenotype of Topoisomerase I wild-type towards the derivative,[4],sensitivity
